From the supplement of paper PMC10307832

How the values were obtained:
Experiment in all cases: relative viability (nuclei count vs DMSO), 5 days (fraction); higher = more cells survive
Selisistat + Palbociclib = compound: C1CC(C2=C(C1)C3=C(N2)C=CC(=C3)Cl)C(=O)N [Selisistat] + CC(=O)c1c(C)c2cnc(Nc3ccc(N4CCNCC4)cn3)nc2n(C2CCCC2)c1=O [Palbociclib] (partner 0.5 µM)
Summary of the method: (§1)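 Relative viability equals treated-well nuclei counts divided by vehicle-well nuclei counts. Counts came from 4× images of lung cancer cell lines grown in 1536-well plates for 5 days after pin-tool dosing on the day after seeding. Dosing used one drug alone or a fixed anchor-drug dose plus five library-drug doses (not always all listed) in √10 steps, and values are medians of duplicate plates.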

Selisistat + Navitoclax = compound: C1CC(C2=C(C1)C3=C(N2)C=CC(=C3)Cl)C(=O)N [Selisistat] + CC1(C)CCC(c2ccc(Cl)cc2)=C(CN2CCN(c3ccc(C(=O)NS(=O)(=O)c4ccc(N[C@H](CCN5CCOCC5)CSc5ccccc5)c(S(=O)(=O)C(F)(F)F)c4)cc3)CC2)C1 [Navitoclax] (partner 0.5 µM)
Summary of the method: as §1

Serdemetan + Crizotinib = compound: c1ccc2c(CCNc3ccc(Nc4ccncc4)cc3)c[nH]c2c1 [Serdemetan] + C[C@@H](Oc1cc(-c2cnn(C3CCNCC3)c2)cnc1N)c1c(Cl)ccc(F)c1Cl [Crizotinib] (partner 1 µM)
Summary of the method: as §1

Serdemetan + Linsitinib = compound: c1ccc2c(CCNc3ccc(Nc4ccncc4)cc3)c[nH]c2c1 [Serdemetan] + C[C@]1(O)C[C@@H](c2nc(-c3ccc4ccc(-c5ccccc5)nc4c3)c3c(N)nccn32)C1 [Linsitinib] (partner 1 µM)
Summary of the method: as §1

Row | Cell Line | relative viability (Selisistat + Palbociclib; first compound 0.4 µM) | relative viability (Selisistat + Palbociclib; first compound 1.265 µM) | relative viability (Selisistat + Palbociclib; first compound 12.65 µM) | relative viability (Selisistat + Palbociclib; first compound 40 µM) | relative viability (Selisistat + Navitoclax; first compound 0.4 µM) | relative viability (Selisistat + Navitoclax; first compound 1.265 µM) | relative viability (Selisistat + Navitoclax; first compound 4 µM) | relative viability (Selisistat + Navitoclax; first compound 12.65 µM) | relative viability (Selisistat + Navitoclax; first compound 40 µM) | relative viability (Serdemetan + Crizotinib; first compound 0.04 µM) | relative viability (Serdemetan + Crizotinib; first compound 0.1265 µM) | relative viability (Serdemetan + Crizotinib; first compound 0.4 µM) | relative viability (Serdemetan + Crizotinib; first compound 1.265 µM) | relative viability (Serdemetan + Crizotinib; first compound 4 µM) | relative viability (Serdemetan + Linsitinib; first compound 0.04 µM) | relative viability (Serdemetan + Linsitinib; first compound 0.1265 µM) | relative viability (Serdemetan + Linsitinib; first compound 0.4 µM) | relative viability (Serdemetan + Linsitinib; first compound 1.265 µM) | relative viability (Serdemetan + Linsitinib; first compound 4 µM) | relative viability (Selisistat + Palbociclib; first compound 4 µM)
1 | LCLC-97TM1 | 0.234 | 0.256 | 0.214 | 0.249 | 0.535 | 0.476 | 0.621 | 0.473 | 0.483 | 0.361 | 0.314 | 0.351 | 0.233 | 0.189 | 0.211 | 0.172 | 0.186 | 0.12 | 0.181 | –
2 | LK-2 | 0.797 | 0.686 | 0.694 | 0.566 | 1.01 | 0.746 | 0.954 | 0.847 | 1.04 | 0.217 | 0.265 | 0.205 | 0.204 | 0.252 | 0.48 | 0.545 | 0.527 | 0.49 | 0.491 | 0.766
3 | LOU-NH91 | 0.594 | 0.526 | 0.519 | 0.552 | 0.695 | 0.637 | 0.58 | 0.664 | 0.707 | 0.733 | 0.738 | – | 0.719 | 0.699 | 0.962 | 1.01 | – | 0.894 | 0.83 | 0.585
4 | LU99A | 0.459 | 0.367 | 0.445 | 0.399 | 0.797 | 0.864 | 0.864 | 0.915 | 0.966 | 0.521 | 0.529 | 0.317 | 0.187 | 0.17 | 0.501 | 0.481 | 0.421 | 0.158 | 0.162 | 0.44
5 | LXF-289 | 0.628 | 0.639 | 0.557 | 0.619 | 0.95 | 0.966 | 0.895 | 0.901 | 0.92 | 0.754 | 0.776 | 0.719 | 0.637 | 0.689 | 0.953 | 0.95 | 0.863 | 0.785 | 0.765 | 0.55
6 | NCI-H23 | 0.57 | 0.51 | 0.538 | 0.441 | 0.853 | 0.936 | – | 0.943 | 0.876 | 0.519 | 0.421 | 0.549 | 0.513 | 0.321 | 0.571 | 0.684 | 0.747 | 0.504 | 0.561 | –
7 | NCI-H322M | 0.488 | 0.467 | 0.478 | 0.5 | 1.26 | 1.18 | – | 1.26 | 1.47 | 0.917 | 0.93 | 0.859 | 0.917 | 0.585 | 0.923 | 0.955 | 0.827 | 0.863 | 0.836 | –
8 | NCI-H441 | 0.24 | 0.186 | 0.217 | 0.239 | 0.608 | 0.619 | – | 0.697 | 0.626 | 0.721 | 0.713 | 0.649 | 0.487 | 0.596 | 0.454 | 0.608 | 0.532 | 0.289 | 0.325 | 0.136
9 | NCI-H460 | 0.163 | 0.149 | 0.15 | 0.113 | 1.2 | 1.16 | – | 1.08 | 1.3 | 0.842 | 0.866 | 0.836 | 0.154 | 0.075 | 0.747 | 0.71 | 0.537 | 0.153 | 0.104 | 0.137
10 | NCI-H520 | 0.224 | 0.208 | 0.274 | 0.236 | 1.06 | 0.959 | 1.18 | 1.13 | 1.03 | 0.692 | 0.778 | 0.686 | 0.687 | 0.641 | 0.973 | 1.02 | 0.817 | 0.808 | 0.774 | 0.198
11 | NCI-H647 | 0.415 | 0.331 | 0.433 | 0.396 | 1.11 | – | – | 0.993 | 1.13 | 0.978 | 1.16 | 0.983 | 0.583 | 0.637 | 1.06 | 1.11 | 1.11 | 0.944 | 0.982 | 0.398
12 | NCI-H727 | 0.738 | 0.613 | 0.601 | 0.637 | 0.501 | 0.445 | – | – | 0.38 | 1.01 | 0.638 | 0.665 | 0.427 | 0.439 | 0.286 | 0.238 | 0.28 | 0.124 | 0.191 | 0.442
13 | NCI-H838 | 0.208 | 0.223 | 0.242 | 0.206 | 1.31 | 1.2 | 1.13 | 1.12 | 1.22 | 0.781 | 0.886 | 0.827 | 0.794 | 1.01 | 0.995 | 1.04 | 0.961 | 0.989 | 1.17 | 0.185
14 | NCI-H1355 | 0.432 | 0.401 | 0.438 | 0.437 | 1.01 | 0.887 | – | 1.03 | 1.03 | 0.97 | 1 | 1.02 | 1.06 | 0.781 | 0.82 | 0.711 | 0.746 | 0.75 | 0.683 | 0.389
